Measurements taken from the supplement of paper PMC10307832.

Columns and labels:
Test in all cases: relative viability (nuclei count vs DMSO), 5 days (fraction); higher = more cells survive
[1] = compound: CC1=CN=C(N=C1C2=CNC(=C2)C(=O)N[C@H](CO)C3=CC(=CC=C3)Cl)NC4=C(C=C(C=C4)F)Cl [VX-11e] + COc1cccc2cc(-c3nc([C@H]4CC[C@H](C(=O)O)CC4)n4ncnc(N)c34)[nH]c12 [OSI-027] (partner 0.5 µM)
Procedure, shortened: (§1)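 Lung cancer cell lines, seeded in 1536-well plates, were treated the following day by pin tool with a single drug or with five library-drug doses (not always all listed) in √10 steps on top of a fixed anchor-drug dose. Cells were fixed and nuclei stained in one step after 5 days, and nuclei were counted. Relative viability is the nuclei count for treated wells divided by that for vehicle wells, reported as medians of duplicate plates.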

[2] = compound: CC1=CN=C(N=C1C2=CNC(=C2)C(=O)N[C@H](CO)C3=CC(=CC=C3)Cl)NC4=C(C=C(C=C4)F)Cl [VX-11e] + CC(=O)Nc1cccc(-n2c(=O)n(C3CC3)c(=O)c3c(Nc4ccc(I)cc4F)n(C)c(=O)c(C)c32)c1 [Trametinib] (partner 0.02 µM)
Procedure, shortened: as §1

[3] = compound: CC1=CN=C(N=C1C2=CNC(=C2)C(=O)N[C@H](CO)C3=CC(=CC=C3)Cl)NC4=C(C=C(C=C4)F)Cl [VX-11e] + N=C(N)NC(=N)NCCc1ccccc1 [Phenformin] (partner 250 µM)
Procedure, shortened: as §1

[4] = compound: CC1=CN=C(N=C1C2=CNC(=C2)C(=O)N[C@H](CO)C3=CC(=CC=C3)Cl)NC4=C(C=C(C=C4)F)Cl [VX-11e] + C[C@@H](Oc1cc(-c2cnn(C3CCNCC3)c2)cnc1N)c1c(Cl)ccc(F)c1Cl [Crizotinib] (partner 1 µM)
Procedure, shortened: as §1

Cell Line | relative viability ([1]; first compound 0.04 µM) | relative viability ([1]; first compound 0.1265 µM) | relative viability ([1]; first compound 0.4 µM) | relative viability ([1]; first compound 1.265 µM) | relative viability ([1]; first compound 4 µM) | relative viability ([2]; first compound 0.04 µM) | relative viability ([2]; first compound 0.1265 µM) | relative viability ([2]; first compound 0.4 µM) | relative viability ([2]; first compound 1.265 µM) | relative viability ([2]; first compound 4 µM) | relative viability ([3]; first compound 0.04 µM) | relative viability ([3]; first compound 0.1265 µM) | relative viability ([3]; first compound 0.4 µM) | relative viability ([3]; first compound 1.265 µM) | relative viability ([3]; first compound 4 µM) | relative viability ([4]; first compound 0.04 µM) | relative viability ([4]; first compound 0.4 µM) | relative viability ([4]; first compound 1.265 µM) | relative viability ([4]; first compound 4 µM) | relative viability ([4]; first compound 0.1265 µM)
NCI-H322M | 0.535 | 0.401 | 0.319 | 0.417 | 0.364 | 0.468 | 0.484 | 0.426 | 0.586 | 0.46 | 0.691 | 0.507 | 0.7 | 0.661 | 0.534 | 1.08 | 0.942 | 0.987 | 0.699 | 
NCI-H358 | 0.734 | 0.642 | 0.25 | 0.382 | 0.132 | 0.0982 | 0.135 | 0.0751 | 0.121 | 0.112 | 0.276 | 0.288 | 0.07 | 0.263 | 0.142 | 0.692 |  | 0.523 | 0.225 | 0.509
NCI-H441 | 0.519 | 0.502 |  | 0.518 | 0.417 | 0.448 | 0.485 |  | 0.278 | 0.325 | 0.858 | 0.837 |  | 0.732 | 0.49 | 0.711 |  | 0.857 | 0.555 | 0.72
NCI-H460 | 0.589 | 0.483 | 0.181 | 0.0819 | 0.0249 | 0.134 | 0.161 | 0.0116 | 0.0437 | 0.0311 | 0.588 | 0.471 | 0.127 | 0.174 | 0.0711 | 1.18 | 0.784 | 0.56 | 0.0797 | 0.907
NCI-H520 | 0.247 | 0.25 | 0.203 | 0.217 | 0.313 | 0.647 | 0.668 | 0.528 | 0.481 | 0.22 | 0.505 | 0.483 | 0.449 | 0.752 | 0.479 | 0.773 | 0.741 | 0.914 | 0.59 | 0.748
NCI-H596 | 0.518 | 0.691 | 0.525 | 0.349 | 0.407 | 0.754 | 0.751 | 0.712 | 0.645 | 0.556 | 0.648 | 0.791 | 0.8 | 0.369 | 0.599 | 0.891 | 1.09 | 0.939 | 0.722 | 1.05
NCI-H647 | 0.664 | 0.456 | 0.496 | 0.41 | 0.353 | 0.51 | 0.358 | 0.211 | 0.163 | 0.217 | 0.677 | 0.442 | 0.249 | 0.266 | 0.196 | 1.1 | 1.01 | 0.608 | 0.523 | 0.916
NCI-H650 | 0.531 | 0.616 | 0.75 | 0.559 | 0.518 | 1.04 | 0.958 | 0.994 | 0.64 | 0.381 | 0.496 | 0.441 | 0.491 | 0.442 | 0.446 |  | 0.711 |  | 0.478 | 0.538
